Patent US9458153B2, “Dihydroquinolizinones for the treatment and prophylaxis of hepatitis B virus infection” (Hoffmann-La Roche Inc., priority 2014, dated 2016)
Counter-ions that a name gives are not always drawn.

Tested on: HBsAg
Experiment: HBsAg assay (chemiluminescence immunoassay of secreted HBsAg in HepG2.2.15 culture supernatant)
Format: cell-based, HBV
Conditions: HepG2.2.15 cells, CLIA kit
Procedure, shortened: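 IC50 came from dose-response curves of HBsAg in culture supernatant, measured semi-quantitatively by chemiluminescent immunoassay. The HBV-producing HepG2.2.15 line was dosed in duplicate with a three-fold compound dilution series, with DMSO at 1% final and DMSO alone as the no-drug control.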

[1] = HBsAg secretion reduced by 50% vs no drug control
[2] = Hepatitis B virus, HepG2.2.15, HBsAg secretion reduced by 50% vs no drug control
[3] = HBsAg secretion reduced by 50% vs no drug control, hydrochloride

| SMILES | IC50 [1] [nM] | IC50 [2] [nM] | also measured |
| --- | --- | --- | --- |
| COCCCOc1cc2c(c(Cl)c1F)-c1cc(=O)c(C(=O)O)cn1C(C(C)C)C2 (stereo not drawn) [Example 137, 11-chloro-10-fluoro-6-isopropyl-9-(3-methoxypropoxy)-2-oxo-6,7-dihydrobenzo[a]quinolizine-3-carboxylic acid] | 15 |  |  |
| COCCCOc1cc2c(cc1F)-c1cc(=O)c(C(=O)O)cn1C(C(C)C)C2 (stereo not drawn) [Example 140, 10-fluoro-6-isopropyl-9-(3-methoxypropoxy)-2-oxo-6,7-dihydrobenzo[a]quinolizine-3-carboxylic acid] |  | 31 |  |
| COc1cc2c(cc1OCC(F)(F)CO)CC(C(C)(C)C)n1cc(C(=O)O)c(=O)cc1-2 (stereo not drawn) [Example 141, 6-tert-butyl-9-(2,2-difluoro-3-hydroxy-propoxy)-10-methoxy-2-oxo-6,7-dihydrobenzo[a]quinolizine-3-carboxylic acid] |  | 7 |  |
| COc1cc2c(cc1OCC(C)(C)CO)CC(C(C)C)n1cc(C(=O)O)c(=O)cc1-2 (stereo not drawn) [Example 144, 9-(3-hydroxy-2,2-dimethyl-propoxy)-6-isopropyl-10-methoxy-2-oxo-6,7-dihydrobenzo[a]quinolizine-3-carboxylic acid] | 26 |  |  |
| COc1cc2c(cc1OCCCO)CC(C(C)C)n1cc(C(=O)O)c(=O)cc1-2 (stereo not drawn) [Example 147, 9-(3-hydroxypropoxy)-6-isopropyl-10-methoxy-2-oxo-6,7-dihydrobenzo[a]quinolizine-3-carboxylic acid] |  | 30 |  |
| COCCCCOc1cc2c(cc1OC)-c1cc(=O)c(C(=O)O)cn1C(C(C)C)C2 (stereo not drawn) [Example 148, 6-isopropyl-10-methoxy-9-(4-methoxybutoxy)-2-oxo-6,7-dihydrobenzo[a]quinolizine-3-carboxylic acid] |  | 5 |  |
| COc1cc2c(cc1OCC(C)(C)CO)CC(C(C)(C)C)n1cc(C(=O)O)c(=O)cc1-2 (stereo not drawn) [Example 149, 6-tert-butyl-9-(3-hydroxy-2,2-dimethyl-propoxy)-10-methoxy-2-oxo-6,7-dihydrobenzo[a]quinolizine-3-carboxylic acid] | 2 |  |  |
| COc1cc2c(cc1OCCCCCO)CC(C(C)(C)C)n1cc(C(=O)O)c(=O)cc1-2 (stereo not drawn) [Example 152, 6-tert-butyl-9-(5-hydroxypentoxy)-10-methoxy-2-oxo-6,7-dihydrobenzo[a]quinolizine-3-carboxylic acid] | 2 |  |  |
| COc1cc2c(cc1OCCCCCCO)CC(C(C)(C)C)n1cc(C(=O)O)c(=O)cc1-2 (stereo not drawn) [Example 155, 6-tert-butyl-9-(6-hydroxyhexoxy)-10-methoxy-2-oxo-6,7-dihydrobenzo[a]quinolizine-3-carboxylic acid] | 2 |  |  |
| COc1cc2c(cc1OCCCCO)CC(C(C)(C)C)n1cc(C(=O)O)c(=O)cc1-2 (stereo not drawn) [Example 158, 6-tert-butyl-9-(4-hydroxybutoxy)-10-methoxy-2-oxo-6,7-dihydrobenzo[a]quinolizine-3-carboxylic acid] |  | 3 |  |
| COc1cc2c(cc1OCC#CCO)CC(C(C)(C)C)n1cc(C(=O)O)c(=O)cc1-2 (stereo not drawn) [Example 159, 6-tert-butyl-9-(4-hydroxybut-2-ynoxy)-10-methoxy-2-oxo-6,7-dihydrobenzo[a]quinolizine-3-carboxylic acid] |  | 66 |  |
| COc1cc2c(cc1OCCCCCCN)CC(C(C)(C)C)n1cc(C(=O)O)c(=O)cc1-2 (stereo not drawn) [Example 160, 9-(6-aminohexoxy)-6-tert-butyl-10-methoxy-2-oxo-6,7-dihydrobenzo[a]quinolizine-3-carboxylic acid] | 18 |  |  |
| COc1cc2c(cc1OCCCCCCNC(=O)OC(C)(C)C)CC(C(C)(C)C)n1cc(C(=O)O)c(=O)cc1-2 (stereo not drawn) [Example 161, 9-[6-(tert-butoxycarbonylamino)hexoxy]-6-tert-butyl-10-methoxy-2-oxo-6,7-dihydrobenzo[a]quinolizine-3-carboxylic acid] | 9 |  |  |
| COc1cc2c(cc1OCCCCCCCCN)CC(C(C)(C)C)n1cc(C(=O)O)c(=O)cc1-2 (stereo not drawn) [Example 166, 9-(8-aminooctoxy)-6-tert-butyl-10-methoxy-2-oxo-6,7-dihydrobenzo[a]quinolizine-3-carboxylic acid] | 6 |  |  |
| COc1cc2c(cc1OCCCCCCCCNC(=O)OC(C)(C)C)CC(C(C)(C)C)n1cc(C(=O)O)c(=O)cc1-2 (stereo not drawn) [Example 167, 9-[8-(tert-butoxycarbonylamino)octoxy]-6-tert-butyl-10-methoxy-2-oxo-6,7-dihydrobenzo[a]quinolizine-3-carboxylic acid] | 11 |  |  |
| COc1cc2c(cc1OCCCCCNC(=O)OC(C)(C)C)CC(C(C)(C)C)n1cc(C(=O)O)c(=O)cc1-2 (stereo not drawn) [Example 172, 9-[5-(tert-butoxycarbonylamino)pentoxy]-6-tert-butyl-10-methoxy-2-oxo-6,7-dihydrobenzo[a]quinolizine-3-carboxylic acid] |  | 2 |  |
| COc1cc2c(cc1OCCCCCNC(C)=O)CC(C(C)(C)C)n1cc(C(=O)O)c(=O)cc1-2 (stereo not drawn) [Example 175, 9-(5-acetamidopentoxy)-6-tert-butyl-10-methoxy-2-oxo-6,7-dihydrobenzo[a]quinolizine-3-carboxylic acid] |  | 33 |  |

| SMILES | IC50 [1] [nM] | IC50 [2] [nM] | also measured |
| --- | --- | --- | --- |
| COc1cc2c(cc1OCCCCCNS(C)(=O)=O)CC(C(C)(C)C)n1cc(C(=O)O)c(=O)cc1-2 (stereo not drawn) [Example 176, 6-tert-butyl-9-[5-(methanesulfonamido)pentoxy]-10-methoxy-2-oxo-6,7-dihydrobenzo[a]quinolizine-3-carboxylic acid] |  | 3 |  |
| COc1cc2c(cc1OCCN)CC(C(C)(C)C)n1cc(C(=O)O)c(=O)cc1-2 (stereo not drawn) [Example 177, 9-(2-aminoethoxy)-6-tert-butyl-10-methoxy-2-oxo-6,7-dihydrobenzo[a]quinolizine-3-carboxylic acid] |  | 1380 |  |
| COc1cc2c(cc1OCCCOCCN)CC(C(C)(C)C)n1cc(C(=O)O)c(=O)cc1-2 (stereo not drawn) [Example 178, 9-[3-(2-aminoethoxy)propoxy]-6-tert-butyl-10-methoxy-2-oxo-6,7-dihydrobenzo[a]quinolizine-3-carboxylic acid] |  | 63 |  |
| CCNCCOCCCOc1cc2c(cc1OC)-c1cc(=O)c(C(=O)O)cn1C(C(C)(C)C)C2 (stereo not drawn) [Example 179, 6-tert-butyl-9-[3-[2-(ethylamino)ethoxy]propoxy]-10-methoxy-2-oxo-6,7-dihydrobenzo[a]quinolizine-3-carboxylic acid] |  | 38 |  |
| COc1cc2c(cc1OCCC(F)F)CC(C(C)(C)C)n1cc(C(=O)O)c(=O)cc1-2 (stereo not drawn) [Example 180, 6-tert-butyl-9-(3,3-difluoropropoxy)-10-methoxy-2-oxo-6,7-dihydrobenzo[a]quinolizine-3-carboxylic acid] |  | 4 |  |
| CCC(F)(F)Oc1cc2c(cc1OC)-c1cc(=O)c(C(=O)O)cn1C(C(C)(C)C)C2 (stereo not drawn) [Example 181, 6-tert-butyl-9-(1,1-difluoropropoxy)-10-methoxy-2-oxo-6,7-dihydrobenzo[a]quinolizine-3-carboxylic acid] |  | 12 |  |
| C=CC(F)(F)Oc1cc2c(cc1OC)-c1cc(=O)c(C(=O)O)cn1C(C(C)(C)C)C2 (stereo not drawn) [Example 182, 6-tert-butyl-9-(1,1-difluoroallyloxy)-10-methoxy-2-oxo-6,7-dihydrobenzo[a]quinolizine-3-carboxylic acid] |  | 16 |  |
| COc1cc2c(cc1OCCCSC)CC(C(C)(C)C)n1cc(C(=O)O)c(=O)cc1-2 (stereo not drawn) [Example 183, 6-tert-butyl-10-methoxy-9-(3-methylsulfanylpropoxy)-2-oxo-6,7-dihydrobenzo[a]quinolizine-3-carboxylic acid] | 2 |  |  |
| COc1cc2c(cc1OCCCS(C)(=O)=O)CC(C(C)(C)C)n1cc(C(=O)O)c(=O)cc1-2 (stereo not drawn) [Example 186, 6-tert-butyl-10-methoxy-9-(3-methylsulfonylpropoxy)-2-oxo-6,7-dihydrobenzo[a]quinolizine-3-carboxylic acid] | 20 |  |  |
| COc1cc2c(cc1OCCN1CCOCC1)CC(C(C)(C)C)n1cc(C(=O)O)c(=O)cc1-2 (stereo not drawn) [Example 189, 6-tert-butyl-10-methoxy-9-(2-morpholinoethoxy)-2-oxo-6,7-dihydrobenzo[a]quinolizine-3-carboxylic acid hydrochloride] |  |  | IC50 [3]: 18 nM |
| COc1cc2c(cc1OCCCN1CCOCC1)CC(C(C)(C)C)n1cc(C(=O)O)c(=O)cc1-2 (stereo not drawn) [Example 192, 6-tert-butyl-10-methoxy-9-(3-morpholinopropoxy)-2-oxo-6,7-dihydrobenzo[a]quinolizine-3-carboxylic acid hydrochloride] |  |  | IC50 [3]: 10 nM |
| COc1cc2c(cc1OCCCN1CCCC1=O)CC(C(C)(C)C)n1cc(C(=O)O)c(=O)cc1-2 (stereo not drawn) [Example 195, 6-tert-butyl-10-methoxy-2-oxo-9-[3-(2-oxopyrrolidin-1-yl)propoxy]-6,7-dihydrobenzo[a]quinolizine-3-carboxylic acid] |  | 57 |  |
| COc1cc2c(cc1OCCCN1CCCC1)CC(C(C)(C)C)n1cc(C(=O)O)c(=O)cc1-2 (stereo not drawn) [Example 196, 6-tert-butyl-10-methoxy-2-oxo-9-(3-pyrrolidin-1-ylpropoxy)-6,7-dihydrobenzo[a]quinolizine-3-carboxylic acid] |  | 120 |  |
| COCCCOc1cc2c(cc1OC)-c1cc(=O)c(C(=O)O)cn1C(C1CCC1)C2 (stereo not drawn) [Example 197, 6-cyclobutyl-10-methoxy-9-(3-methoxypropoxy)-2-oxo-6,7-dihydrobenzo[a]quinolizine-3-carboxylic acid] |  | 3 |  |
| COc1cc2c(cc1OC)-c1cc(=O)c(C(=O)O)cn1C(CC(F)(F)F)C2 (stereo not drawn) [Example 198, 9,10-dimethoxy-2-oxo-6-(2,2,2-trifluoroethyl)-6,7-dihydrobenzo[a]quinolizine-3-carboxylic acid] |  | 230 |  |
| COCCCOc1cc2c(cc1OC)-c1cc(=O)c(C(=O)O)cn1C(CC(F)(F)F)C2 (stereo not drawn) [Example 199, 10-methoxy-9-(3-methoxypropoxy)-2-oxo-6-(2,2,2-trifluoroethyl)-6,7-dihydrobenzo[a]quinolizine-3-carboxylic acid] | 33 |  |  |
